The conditions of data set [1]: previous experiments; cited from earlier work.
A short description of data set [2]: Phase 2 clinical trial PK profile of ZP1848 and metabolites in SBS patients. The class given is in vivo. To be noted: human, plasma, subcutaneous, Phase 2 study, SBS patients; read-out: terminal plasma half-life. The procedure:
The study was designed as a randomized, cross-over and double-blinded with three different doses of ZP1848 (10 mg, 1 mg, 0.1 mg) in 16 SBS patients.
The 18 SBS patients (16 patients completed the study) were randomized evenly and in a double-blinded fashion to each of the six cross-over dose level combinations: 10 mg/1 mg, 10 mg/0.1 mg, 1 mg/10 mg, 1 mg/0.1 mg, 0.1 mg/10 mg, 0.1 mg/1 mg of ZP1848. The patients were injected once daily (QD) subcutaneously with the above doses of ZP1848.
Blood samples for PK analysis were collected on several study visits throughout the study period: the study comprised a 1st baseline balance study (4 days), a 1st treatment period (21 days) including a 1st treatment balance study (last 4 days of 1st treatment period), followed by a wash-out period (at least 4 weeks); and a 2nd baseline balance study (4 days), a 2nd treatment period (21 days) including a 2nd treatment balance study (last 4 days of 2nd treatment period) and a follow-up period (at least 4 weeks).
PK sampling was performed at visit 11 (1st treatment, balance study) and visit 17 (second day of 2nd baseline study-after a wash out period), and again at visit 25 (2nd treatment balance study) and at visit 29 (last day of follow-up period).
At day visit 11 and visit 25 a full PK profile in steady state was investigated. PK samples were taken prior to injection of ZP1848, and at the following time points (+/−10 minutes) after trial product administration: 1 h, 2 h, 4 h, 6 h, 8 h, 10 h, 12 h and 24 h. Each PK sample contained 2 mL of blood, resulting in a total of […] blood drawn for PK purposes. The plasma sample was immediately stored at −80° C. after sampling.
Plasma samples were analyzed after immunoaffinity extraction followed by liquid chromatography mass spectrometry (LC-MS/MS). […] Plasma terminal elimination half-life (T½) was determined as In (2)/ke where ke is the magnitude of the slope of the log linear regression of the log concentration versus time profile during the terminal phase.

Where two headings read alike, the source gives them in different places.

Drawing on patent US20250136655A1, “INJECTION PEN FOR SUBCUTANEOUS ADMINISTRATION OF A PEPTIDE” (Zealand Pharma A/S, priority 2017, published 2025), this text covers half-life for one substance.

Consider “H-HGEGTFSSELATILDALAARDFIAWLIATKITDKKKKKK-NH2 [ZP1848]”, for which the half-life entry in data set [1] was “about 17 hours”; in data set [2] it was 5 to 17 days.
